Measurements: patent US20220370385A1, “COMPOSITIONS FOR USE IN INHIBITING SRC KINASE AND TREATING AND PREVENTING ASSOCIATED DISORDERS” (Enzene Biosciences Ltd., priority 2019, published 2022)

System: MDA-MB-468 cells
Assay: MDA-MB-468 cell viability, CellTiter-Glo, 24 hrs
Type: cell-based, human
Conditions: 24 hrs incubation
Protocol: MDA-MB-468 cells, isolated from a pleural effusion of a patient with metastatic adenocarcinoma of the breast, is a triple negative breast cancer (TNBC) cell line. The IC 50 value of E05 or lapatinib (Sigma) or the structural analogues of E05 were tested in this cell line.
Briefly, MDA-MB-468 cells (ATCC #HTB-32) were seeded with a density of 5,000 cells per well in a 96 well white plate (Costar Cat #3917) in DMEM media supplemented with 10% FBS (assay medium). The plates were incubated at 37° C., 5% CO2 for 24 hr. E05 and analogues were diluted in the assay medium and added to the respective wells of the assay plate. The plates were further incubated at 37° C., 5% CO2 for 24 hrs. After the incubation, the cell viability was assessed using CellTiter-Glo® and the plates were read for luminescence using Cytation 5 (Biotek). The relative luminescence unit (RLU) obtained was plotted against the concentration and EC50 values were estimated using Graphpad Prism 5 software (FIG. 15 and Table 2).

| Activity (EC50) | SMILES |
| --- | --- |
| Inactive | COc1cc(C(=O)O)ccc1O [E05_G, 4-Hydroxy-3-methoxy-benzoic acid (Vanillic acid)] |
| Inactive | O=C(O)CCc1ccc(O)cc1 [E05_D, 3-(4-Hydroxyphenyl)-propionic acid (Phloretic acid)] |
